Laboratory results published in ChEMBL document CHEMBL1136494, “Potent anti-metastatic activity of dimeric sesquiterpene thioalkaloids from the rhizome of Nuphar pumilum” (2003).

Assays:
Format in all cases: functional
Conditions in all cases: Mus musculus
B16 [1] = assay: Inhibition of invasion of B16 melanoma cells by 100 uM concentration of the compound
B16 [2] = assay: Inhibition of invasion of B16 melanoma cells by 10 uM concentration of the compound
B16 [3] = assay: Inhibition of invasion of B16 melanoma cells by 1 uM concentration of the compound
B16 [4] = assay: Inhibition of invasion of B16 melanoma cells by 0.01 uM concentration of the compound
B16 [5] = assay: Inhibition of invasion of B16 melanoma cells by 0.1 uM concentration of the compound
B16 [6] = assay: Inhibition of lung metastasis of B16 melanoma cells in mice after 20 mg/kg po administration of the compound

Compound	inhibition at 100 µM (B16 [1])	inhibition at 10 µM (B16 [2])	inhibition at 1 µM (B16 [3])	inhibition at 0.01 µM (B16 [4])	inhibition at 0.1 µM (B16 [5])	inhibition in vivo at 20 mg/kg (B16 [6])
C[C@@H]1CC[C@@H](c2ccoc2)N2C[C@@]3(CC[C@@H]12)CS[C@]1(CC[C@H]2[C@H](C)CC[C@@H](c4ccoc4)N2[C@@H]1O)C3 [6-HYDROXYTHIONUPHLUTINE B]	47.1%	61.4%	62.7%	5.9%	31.6%	
COc1cc(C=CC(=O)CC(=O)/C=C/c2ccc(O)c(OC)c2)ccc1O [CURCUMIN]						87%
C[C@H]1CC[C@H]2[C@H](C)CC[C@@H](c3ccoc3)[N@@+]2([O-])C1	47.2%	41.4%	34.7%		19.6%	
C[C@@H]1CC[C@@H](c2ccoc2)N2C[C@]3(CC[C@@H]12)C[S+]([O-])[C@]1(CC[C@H]2[C@H](C)CC[C@@H](c4ccoc4)N2C1)C3 (stereo partly drawn)	15.7%	12.8%	18.5%		10.6%	
C[C@@H]1CC[C@@H](c2ccoc2)N2C[C@@]3(CC[C@@H]12)C[S+]([O-])[C@@]1(CC[C@H]2[C@H](C)CC[C@@H](c4ccoc4)N2C1)C3 (stereo partly drawn)	32.5%	42.2%	38.3%		16.9%	
C[C@@H]1CC[C@@H](c2ccoc2)N2[C@H]1CC[C@@]1(CS[C@@]3(CC[C@H]4[C@H](C)CC[C@@H](c5ccoc5)N4[C@@H]3O)C1)[C@H]2O	86.6%	83.2%	68.5%	40.3%	43.1%	
C[C@H]1CC[C@H]2[C@H](C)CC[C@@H](c3ccoc3)N2C1	19.1%	28.5%	14%		-5.1%	
C[C@@H]1CC[C@@H](c2ccoc2)N2C[C@@]3(CC[C@@H]12)C[S+]([O-])[C@]1(CC[C@H]2[C@H](C)CC[C@@H](c4ccoc4)N2C1)C3 (stereo partly drawn)	0%	9.2%	10.2%		-8.1%	
C[C@@H]1CC[C@@H](c2ccoc2)N2C[C@@]3(CC[C@@H]12)CS[C@@]1(CC[C@H]2[C@H](C)CC[C@@H](c4ccoc4)N2C1)C3 [THIOBINUPHARIDINE]	22.7%	15.6%	9.7%		5.2%	
C[C@@H]1CC[C@@H](c2ccoc2)N2C[C@@]3(CC[C@@H]12)CS[C@@]1(CC[C@H]2[C@H](C)CC[C@@H](c4ccoc4)N2[C@@H]1O)C3	86.8%	84.8%	66.5%	50.9%	57.5%	94%
C[C@@H]1CC[C@@H](c2ccoc2)N2C[C@]3(CC[C@@H]12)CS[C@]1(CC[C@H]2[C@H](C)CC[C@@H](c4ccoc4)N2C1)C3 [NEOTHIOBINUPHARIDINE]	28.3%	33.2%	18.9%		11.9%	
C[C@@H]1CC[C@H]2[C@H](C)CC[C@@H](c3ccoc3)N2C1 [(-)-7-EPI-DEOXYNUPHARIDINE]	23%	20.9%	25.3%		5.1%	
C[C@@H]1CC[C@@H](c2ccoc2)N2C[C@](C)(O)CC[C@@H]12 [NUPHAROLUTINE]	-0.6%	16.8%	1.7%		25.5%	
